Measured values: patent publication US8232271B2 (priority 2008, dated 2012)

Assays:
[1] = target: T1, HCV polymerase (NS5B570n-Con1) (Hepatitis C virus genotype 1b, UniProt Q9WMX2); test: HCV NS5B RNA polymerase activity assay; assay type: biochemical, HCV Con1 strain
T1 construct: contains a 21 amino acid deletion at the C-terminus relative to the full-length HCV polymerase; 6-histidine (N); made in house; host or cells: E. coli BL21(DE) pLysS, plasmid pET17b
Procedure: The enzymatic activity of HCV polymerase (NS5B570n-Con1) was measured as the incorporation of radiolabeled nucleotide monophosphates into acid insoluble RNA products. Unincorporated radiolabeled substrate was removed by filtration and scintillant was added to the washed and dried filter plate containing radiolabeled RNA product. The amount of RNA product generated by NS5B570-Con1 at the end of the reaction was directly proportional to the amount of light emitted by the scintillant.
The N-terminal 6-histidine tagged HCV polymerase, derived from HCV Con1 strain, genotype 1b (NS5B570n-Con1) contains a 21 amino acid deletion at the C-terminus relative to the full-length HCV polymerase and was purified from E. coli strain BL21(DE) pLysS. The construct, containing the coding sequence of HCV NS5B Con1 (GenBank accession number AJ242654) was inserted into the plasmid construct pET17b, downstream of a T7 promoter expression cassette and transformed into E. coli. A single colony was grown overnight as a starter culture and later used inoculate 10 L of LB media supplemented with 100 μg/mL ampicillin at 37° C. Protein expression was induced by the addition of 0.25 mM isopropyl-β-D-thiogalactopyranoside (IPTG) when optical density at […] of the culture was between 0.6 and 0.8 and cells were harvested after 16 to 18 h at 30° C. NS5B570n-Con1 was purified to homogeneity using a three-step protocol including subsequent column chromatography on Ni-NTA, SP-Sepharose HP and Superdex 75 resins.
Each 50 μl enzymatic reaction contained 20 nM RNA template derived from the complementary sequence of the Internal Ribosome Entry Site (cIRES), 20 nM NS5B570n-Con1 enzyme, 0.5 μCi of tritiated UTP (Perkin Elmer catalog no. TRK-412; specific activity: 30 to 60 Ci/mmol; stock solution concentration from 7.5×10^-5 M to 20.6×10^-6 M), 1 μM each ATP, CTP, and GTP, 40 mM Tris-HCl pH 8.0, 40 mM NaCl, 4 mM DTT (dithiothreitol), 4 mM MgCl2, and 5 μl of compound serial diluted in DMSO. Reaction mixtures were assembled in 96-well filter plates (cat #MADVN0B, Millipore Co.) and incubated for 2 h at 30° C. Reactions were stopped by addition of 10% final (v/v) trichloroacetic acid and incubated for 40 min at 4° C. Reactions were filtered, washed with 8 reaction volumes of 10% (v/v) trichloroacetic acetic acid, 4 reaction volumes of 70% (v/v) ethanol, air dried, and 25 μl of scintillant (Microscint 20, Perkin-Elmer) was added to each reaction well.
The amount of light emitted from the scintillant was converted to counts per minute (CPM) on a Topcount® plate reader (Perkin-Elmer, Energy Range: Low, Efficiency Mode: Normal, Count Time: 1 min, Background Subtract: none, Cross talk reduction: Off).
Data was analyzed in Excel® (Microsoft®) and ActivityBase® (Idbs®). The reaction in the absence of enzyme was used to determine the background signal, which was subtracted from the enzymatic reactions. Positive control reactions were performed in the absence of compound, from which the background corrected activity was set as 100% polymerase activity. All data was expressed as a percentage of the positive control. The compound concentration at which the enzyme-catalyzed rate of RNA synthesis was reduced by 50% (IC50) was calculated by fitting
[formula] equation (i) to the data. where “Y” corresponds to the relative enzyme activity (in %), “% Min” is the residual relative activity at saturating compound concentration, “% Max” is the relative maximum enzymatic activity, “X” corresponds to the compound concentration, and “S” is the Hill coefficient (or slope).

Row | Structure (SMILES) | IC50 [1] [nM] | melting point [°C]
1 | COc1cc(CCC(=O)O)c(-c2ccc[nH]c2=O)cc1C(C)(C)C [Compound I-1, 3-[4-tert-Butyl-5-methoxy-2-(2-oxo-1,2-dihydro-pyridin-3-yl)-phenyl]-propionic acid] | 273 | 
2 | COc1cc(CO)c(-c2ccc[nH]c2=O)cc1C(C)(C)C [Compound I-2, 3-(5-tert-Butyl-2-hydroxymethyl-4-methoxy-phenyl)-1H-pyridin-2-one] | 1010 | 215 to 216
3 | COC(=O)CCc1cc(OC)c(C(C)(C)C)cc1-c1ccc[nH]c1=O [Compound I-3, 3-[4-tert-Butyl-5-methoxy-2-(2-oxo-1,2-dihydro-pyridin-3-yl)-phenyl]-propionic acid methyl ester] | 954 | 
4 | COc1cc(C(=O)O)c(-c2ccc[nH]c2=O)cc1C(C)(C)C [Compound I-4, 4-tert-Butyl-5-methoxy-2-(2-oxo-1,2-dihydro-pyridin-3-yl)-benzoic acid] | 27 | 244 to 245
5 | COc1cc(CCO)c(-c2ccc[nH]c2=O)cc1C(C)(C)C [Compound I-5, 3-[5-tert-Butyl-2-(2-hydroxy-ethyl)-4-methoxy-phenyl]-1H-pyridin-2-one] | 1580 | 231.8 to 233.7
6 | CC(C)(C)c1ccc(NS(C)(=O)=O)c(-c2ccc[nH]c2=O)c1 [Compound I-6, N-[4-tert-Butyl-2-(2-oxo-1,2-dihydro-pyridin-3-yl)-phenyl]-methane sulfonamide] | 3850 | 219.3 to 233.8
7 | COc1cc(CC(=O)O)c(-c2ccc[nH]c2=O)cc1C(C)(C)C [Compound I-7, [4-tert-Butyl-5-methoxy-2-(2-oxo-1,2-dihydro-pyridin-3-yl)-phenyl]-acetic acid] | 156 | 
8 | CC(=O)Nc1ccc(C(C)(C)C)cc1-c1ccc[nH]c1=O [Compound I-8, N-[4-tert-butyl-2-(2-oxo-1,2-dihydro-pyridin-3-yl)-phenyl]-acetamide] | 8560 | 259 to 260
9 | CNC(=O)c1cc(OC)c(C(C)(C)C)cc1-c1ccc[nH]c1=O [Compound I-9, 4-tert-Butyl-5-methoxy-N-methyl-2-(2-oxo-1,2-dihydro-pyridin-3-yl)-benzamide] | 442 | 
10 | CNC(=O)Cc1cc(OC)c(C(C)(C)C)cc1-c1ccc[nH]c1=O [Compound I-10, 2-[4-tert-Butyl-5-methoxy-2-(2-oxo-1,2-dihydro-pyridin-3-yl)-phenyl]-N-methyl-acetamide] | 700 | 
11 | COc1cc(CC(N)=O)c(-c2ccc[nH]c2=O)cc1C(C)(C)C [Compound I-11, 2-[4-tert-Butyl-5-methoxy-2-(2-oxo-1,2-dihydro-pyridin-3-yl)-phenyl]-acetamide] | 437 | 
12 | COc1cc(CNC(C)=O)c(-c2ccc[nH]c2=O)cc1C(C)(C)C [Compound I-12] | 125 | 
13 | COc1cc(CNS(C)(=O)=O)c(-c2ccc[nH]c2=O)cc1C(C)(C)C [Compound I-13, N-[4-tert-Butyl-5-methoxy-2-(2-oxo-1,2-dihydro-pyridin-3-yl)-benzyl]-methane sulfonamide] | 64 | 
14 | COc1cc(CN(C)C(C)=O)c(-c2ccc[nH]c2=O)cc1C(C)(C)C [Compound I-14] | 151 | 
15 | COc1cc(CS(C)(=O)=O)c(-c2ccc[nH]c2=O)cc1C(C)(C)C [Compound I-15, 3-(5-tert-Butyl-2-methanesulfonylmethyl-4-methoxy-phenyl)-1H-pyridin-2-one] | 746 | 
16 | COc1cc(CN2CCCCS2(=O)=O)c(-c2ccc[nH]c2=O)cc1C(C)(C)C [Compound I-16] | 35 | 225.8 to 226.1
17 | COc1cc(CCNS(C)(=O)=O)c(-c2ccc[nH]c2=O)cc1C(C)(C)C [Compound I-17, N-{2-[4-tert-butyl-5-methoxy-2-(2-oxo-1,2-dihydro-pyridin-3-yl)-phenyl]-ethyl}-methanesulfonamide] | 280 | 219.3 to 222.4
18 | COc1cc(CN2CCCC2=O)c(-c2ccc[nH]c2=O)cc1C(C)(C)C [Compound I-18, 3-[5-tert-Butyl-4-methoxy-2-(2-oxo-pyrrolidin-1-ylmethyl)-phenyl]-1H-pyridin-2-one] | 121 | 
19 | COc1cc(CNS(=O)(=O)Cc2ccccc2)c(-c2ccc[nH]c2=O)cc1C(C)(C)C [Compound I-20] | 211 | 249 to 250

Row | Structure (SMILES) | IC50 [1] [nM] | melting point [°C]
20 | COc1cc(CN(C)C(=O)c2ccccc2)c(-c2ccc[nH]c2=O)cc1C(C)(C)C [Compound I-22] | 25 | 236.2 to 238
21 | COc1cc(CN2CCCCC2=O)c(-c2ccc[nH]c2=O)cc1C(C)(C)C [Compound I-23] | 52 | 224.6 to 228.9
22 | COc1cc(CNS(=O)(=O)C(C)C)c(-c2ccc[nH]c2=O)cc1C(C)(C)C [Compound I-25] | 183 | 118 to 120
23 | COc1cc(CN(Cc2ccccc2)S(C)(=O)=O)c(-c2ccc[nH]c2=O)cc1C(C)(C)C [Compound I-26] | 145 | 229 to 230
24 | CCN(Cc1cc(OC)c(C(C)(C)C)cc1-c1ccc[nH]c1=O)S(C)(=O)=O [Compound I-27] | 44 | 245 to 246
25 | COc1cc(CN(C(C)C)S(C)(=O)=O)c(-c2ccc[nH]c2=O)cc1C(C)(C)C [Compound I-28] | 33 | 285 to 286
26 | COc1cc(CN2C(=O)CCC2=O)c(-c2ccc[nH]c2=O)cc1C(C)(C)C [Compound I-29] | 68 | 112.2 to 124.9
27 | COc1cc(CN(CCOC(C)=O)S(C)(=O)=O)c(-c2ccc[nH]c2=O)cc1C(C)(C)C [Compound I-30, 2-{[4-tert-Butyl-5-methoxy-2-(2-oxo-1,2-dihydro-pyridin-3-yl)-benzyl]-methanesulfonyl-amino}-ethyl acetate] | 35 | 207 to 208
28 | COc1cc(CNC(=O)c2ccc(N(S(C)(=O)=O)S(C)(=O)=O)cc2)c(-c2ccc[nH]c2=O)cc1C(C)(C)C [Compound I-44] | 774 | 
29 | COc1cc(CNS(C)(=O)=O)c(-c2cc(F)c[nH]c2=O)cc1C(C)(C)C [Compound I-45] | 687 | 
30 | COc1cc(CNC(=O)c2cccnc2)c(-c2ccc[nH]c2=O)cc1C(C)(C)C [Compound I-49] | 26 | 
31 | COc1cc(CNS(N)(=O)=O)c(-c2ccc[nH]c2=O)cc1C(C)(C)C [Compound I-50, N-[4-tert-Butyl-5-methoxy-2-(2-oxo-1,2-dihydro-pyridin-3-yl)-benzyl]-sulfamide] | 49 | 
32 | COc1cc(CN2CCOC2=O)c(-c2ccc[nH]c2=O)cc1C(C)(C)C [Compound I-74] | 56 | 
33 | COc1cc(CN2C(=O)OC[C@H]2C(C)C)c(-c2ccc[nH]c2=O)cc1C(C)(C)C [Compound I-75] | 86 | 
34 | COc1cc(CN2C(=O)OC[C@@H]2C(C)C)c(-c2ccc[nH]c2=O)cc1C(C)(C)C [Compound I-76, 3-[5-tert-Butyl-2-((S)-4-isopropyl-2-oxo-oxazolidin-3-ylmethyl)-4-methoxy-phenyl]-1H-pyridin-2-one] | 134 | 
35 | COc1cc(C(=O)N2CCOC(CO)C2)c(-c2ccc[nH]c2=O)cc1C(C)(C)C (stereo not drawn) [Compound I-78] | 1410 | 
36 | COc1cc(C(=O)N2CCC(Oc3ccccc3)CC2)c(-c2ccc[nH]c2=O)cc1C(C)(C)C [Compound I-79] | 1320 | 
37 | COc1cc(C(=O)NCC#N)c(-c2ccc[nH]c2=O)cc1C(C)(C)C [Compound I-85] | 23 | 
38 | COc1cc(CN(C(C)=O)c2ccccc2)c(-c2ccc[nH]c2=O)cc1C(C)(C)C [Compound I-89] | 106 | 
